Values of other authors, collected in US8518435B2 (priority 2011, dated 2013).

Assays:
[1] = test system: bacteria, viruses, parasites, and yeast/mold/fungus; settings: in vitro (in a test tube)
influenza virus = settings: mice infected with lethal doses of influenza virus, vs saline controls
rhinovirus IB = settings: in vitro; J. Nat. Prod. (1994)

In the case of `COC(=O)C1=CO[C@@H](C)[C@@H](C=O)[C@@H]1CC(=O)[O-].COC(=O)C1=CO[C@@H](C)[C@@H](C=O)[C@@H]1CC(=O)[O-].[Ca+2]` [calcium elenolate], the “effectiveness in eliminating organisms” value [1] is listed as “effective in eliminating a very broad range of organisms”.

For `CC1(C)[C@@H](O[C@H]2O[C@H](C(=O)O)[C@@H](O)[C@H](O)[C@H]2O[C@@H]2O[C@H](C(=O)O)[C@@H](O)[C@H](O)[C@H]2O)CC[C@]2(C)[C@H]3C(=O)C=C4[C@@H]5C[C@@](C)(C(=O)O)CC[C@]5(C)CC[C@@]4(C)[C@]3(C)CC[C@@H]12` [glycyrrhizin], the lung damage (influenza virus) is listed as “less lung damage” and the protection from death (influenza virus) is listed as “protected from death due to the virus”.

For beta-sesquiphellandrone, the IC50 (rhinovirus IB) is given as 440 nM.
